Laboratory results published in ChEMBL document CHEMBL1201862, “PubChem BioAssay data set” (2004).
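48-hour exposure; five concentrations; linearly interpolated endpoints. GI50 is the concentration that inhibits growth by half.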 Calls of active or inactive are those of the source. No stated cut-off is given here; in the data, active = GI50 up to about 1.1 µM and inactive = higher.

Key:
Test in all cases: DTP human tumour cell line panel, 48 h
ACHN = test system: ACHN
BT-549 = test system: BT-549
EKVX = test system: EKVX
HL-60 = test system: HL-60
HOP-62 = test system: HOP-62
HOP-92 = test system: HOP-92
K562 = test system: K562
MDA-MB-231 = test system: MDA-MB-231
NCI-H460 = test system: NCI-H460
NCI/ADR-RES = test system: NCI/ADR-RES
OVCAR-8 = test system: OVCAR-8
PC-3 = test system: PC-3
SF-268 = test system: SF-268
SK-MEL-2 = test system: SK-MEL-2
SK-MEL-5 = test system: SK-MEL-5
SK-OV-3 = test system: SK-OV-3
UACC-257 = test system: UACC-257
IGROV-1 = test system: IGROV-1
SF-295 = test system: SF-295

SMILES	GI50 (ACHN)	GI50 (BT-549)	GI50 (EKVX)	GI50 (HL-60)	GI50 (HOP-62)	GI50 (HOP-92)	GI50 (K562)	GI50 (MDA-MB-231)	GI50 (NCI-H460)	GI50 (NCI/ADR-RES)	GI50 (OVCAR-8)	GI50 (PC-3)	GI50 (SF-268)	GI50 (SK-MEL-2)	GI50 (SK-MEL-5)	GI50 (SK-OV-3)	GI50 (UACC-257)	GI50 (IGROV-1)	GI50 (SF-295)
CC1CCC(C(C)C2C(O)CC3C4CC=C5CC(O)CCC5(C)C4CCC32C)NC1 (stereo unspecified)	42 µM (inactive)	> 100 µM (inactive)	> 100 µM (inactive)	17.3 µM (inactive)	27.7 µM (inactive)	23.7 µM (inactive)	39.2 µM (inactive)	24.7 µM (inactive)	48 µM (inactive)	23.4 µM (inactive)	15.9 µM (inactive)	26.9 µM (inactive)	> 100 µM (inactive)	> 100 µM (inactive)	44.2 µM (inactive)	> 100 µM (inactive)	34.5 µM (inactive)		
C=CC(C)CCC(C/C=C(\C)CCC=C(C)C)C(=C)CCCC(C)C (stereo unspecified)	> 100 µM (inactive)	> 100 µM (inactive)	> 100 µM (inactive)	> 100 µM (inactive)	> 100 µM (inactive)	> 100 µM (inactive)	> 100 µM (inactive)	> 100 µM (inactive)	> 100 µM (inactive)	> 100 µM (inactive)	> 100 µM (inactive)	> 100 µM (inactive)	> 100 µM (inactive)	> 100 µM (inactive)	> 100 µM (inactive)	> 100 µM (inactive)	> 100 µM (inactive)	> 100 µM (inactive)	> 100 µM (inactive)
COc1cc(Br)cc2cc(-c3cn4ccsc4n3)c(=O)oc12	34.8 µM (inactive)	20.3 µM (inactive)	29.2 µM (inactive)	29 µM (inactive)	29.1 µM (inactive)	11.1 µM (inactive)	32.1 µM (inactive)	20.6 µM (inactive)	32 µM (inactive)	34.2 µM (inactive)	45.8 µM (inactive)	25.2 µM (inactive)	34.3 µM (inactive)	58.9 µM (inactive)	19.7 µM (inactive)	33.7 µM (inactive)	37.6 µM (inactive)	19.9 µM (inactive)	26.8 µM (inactive)
CN(Cc1cc(Br)cc(Br)c1O)Cc1c(O)ccc2ccccc12	22.7 µM (inactive)	22.4 µM (inactive)	16.9 µM (inactive)	18.3 µM (inactive)	18.7 µM (inactive)	19.1 µM (inactive)	19.8 µM (inactive)	16.7 µM (inactive)	19.1 µM (inactive)	34.6 µM (inactive)	23.8 µM (inactive)	16.3 µM (inactive)	24.9 µM (inactive)	17.8 µM (inactive)	17.4 µM (inactive)	19.6 µM (inactive)	17.3 µM (inactive)	20.2 µM (inactive)	21.5 µM (inactive)
O=c1c2c(c1=O)C1(SCCCS1)c1cc(Cl)ccc1O2	> 100 µM (inactive)	> 100 µM (inactive)	> 100 µM (inactive)	> 100 µM (inactive)	> 100 µM (inactive)	> 100 µM (inactive)	> 100 µM (inactive)	> 100 µM (inactive)	> 100 µM (inactive)	> 100 µM (inactive)	> 100 µM (inactive)	> 100 µM (inactive)	> 100 µM (inactive)	> 100 µM (inactive)	> 100 µM (inactive)	> 100 µM (inactive)	> 100 µM (inactive)	> 100 µM (inactive)	> 100 µM (inactive)
Cc1noc(C)c1-n1nc2ccc3nonc3c2n1	> 88.5 µM (inactive)	79.3 µM (inactive)	35.9 µM (inactive)	> 100 µM (inactive)	22.5 µM (inactive)	29.1 µM (inactive)	> 100 µM (inactive)	> 65.9 µM (inactive)	> 100 µM (inactive)	> 100 µM (inactive)	50.7 µM (inactive)	> 100 µM (inactive)	41 µM (inactive)	48.9 µM (inactive)	> 100 µM (inactive)	34.8 µM (inactive)	> 100 µM (inactive)	81.7 µM (inactive)	31.7 µM (inactive)
C=C1C[C@@H](O)[C@@H](Br)C(C)(C)[C@]12CCC(C)(Cl)C(Br)C2 (stereo partly specified)	32.8 µM (inactive)	35.5 µM (inactive)	4.35 µM (inactive)	25.6 µM (inactive)	19.1 µM (inactive)	24.2 µM (inactive)	53.5 µM (inactive)	40.7 µM (inactive)	27.3 µM (inactive)	21.4 µM (inactive)	34.7 µM (inactive)	0.431 µM (active)	32 µM (inactive)	15.1 µM (inactive)	7.71 µM (inactive)	57.3 µM (inactive)	21.6 µM (inactive)	7.93 µM (inactive)	30.6 µM (inactive)
COc1c(Br)cc2c(c1OC)C(Br)CCC(Br)(Br)C2=O (stereo unspecified)	2.29 µM (inactive)	0.527 µM (active)	3.93 µM (inactive)	0.787 µM (active)	2.19 µM (inactive)	3.3 µM (inactive)	0.377 µM (active)	3.1 µM (inactive)	2.75 µM (inactive)	0.587 µM (active)	0.378 µM (active)	1.44 µM (inactive)	0.986 µM (active)	1.1 µM (active)	0.653 µM (active)	2.9 µM (inactive)	3.17 µM (inactive)	0.482 µM (active)	2.52 µM (inactive)
Cc1c2c(n3c(nc4ccccc43)c1C#N)N(c1ccc(Cl)cc1)CC2	> 100 µM (inactive)	> 100 µM (inactive)	> 100 µM (inactive)	> 100 µM (inactive)	> 100 µM (inactive)	> 100 µM (inactive)	> 100 µM (inactive)	> 100 µM (inactive)	> 100 µM (inactive)	> 100 µM (inactive)	> 100 µM (inactive)	> 100 µM (inactive)	> 100 µM (inactive)	> 100 µM (inactive)	> 100 µM (inactive)	96.4 µM (inactive)	> 100 µM (inactive)	> 100 µM (inactive)	> 100 µM (inactive)
C[C@@]1(CCCCCCCCCCc2ccccc2)C[C@@]2(C)OC(=O)C[C@H]2OO1	2.2 µM (inactive)	0.479 µM (active)	2.52 µM (inactive)	0.399 µM (active)	1.57 µM (inactive)	0.769 µM (active)	1.68 µM (inactive)	1.67 µM (inactive)	1.96 µM (inactive)	1.68 µM (inactive)	1.43 µM (inactive)	1.77 µM (inactive)	1.8 µM (inactive)	20.9 µM (inactive)	1.44 µM (inactive)	2.48 µM (inactive)	2.12 µM (inactive)	1.75 µM (inactive)	1.82 µM (inactive)
CN1C(=O)C(CC(=O)O)NC1=S (stereo unspecified)	> 100 µM (inactive)	> 100 µM (inactive)	56.6 µM (inactive)	> 100 µM (inactive)	> 100 µM (inactive)	> 100 µM (inactive)	> 100 µM (inactive)	> 100 µM (inactive)	> 100 µM (inactive)	> 100 µM (inactive)	> 100 µM (inactive)	> 100 µM (inactive)	> 100 µM (inactive)	> 100 µM (inactive)	> 100 µM (inactive)	> 100 µM (inactive)	> 100 µM (inactive)	99.5 µM (inactive)	> 100 µM (inactive)
Cc1nn(C2OC(CO)C(O)C(F)C2O)c(=O)[nH]c1=O (stereo unspecified)	> 100 µM (inactive)	> 100 µM (inactive)		> 100 µM (inactive)		> 100 µM (inactive)	> 100 µM (inactive)	> 100 µM (inactive)	> 100 µM (inactive)	> 100 µM (inactive)	> 100 µM (inactive)	> 100 µM (inactive)	> 100 µM (inactive)	> 100 µM (inactive)	> 100 µM (inactive)	> 100 µM (inactive)	> 100 µM (inactive)		> 100 µM (inactive)
Cc1c(S(=O)(=O)c2ccccc2)c(N)n(Cc2ccccc2)c1C	> 100 µM (inactive)	> 100 µM (inactive)	> 100 µM (inactive)	> 100 µM (inactive)		> 100 µM (inactive)	> 100 µM (inactive)	> 100 µM (inactive)	> 100 µM (inactive)	> 100 µM (inactive)	> 100 µM (inactive)	38.2 µM (inactive)	80.5 µM (inactive)	> 100 µM (inactive)	> 100 µM (inactive)	> 100 µM (inactive)	> 100 µM (inactive)	> 100 µM (inactive)	> 100 µM (inactive)
C[n+]1c(-c2ccc(/C=N\NC(=O)c3ccc(C(=O)N/N=C/c4ccc(-c5cn6ccsc6[n+]5C)cc4)cc3)cc2)cn2ccsc21	17.9 µM (inactive)	16.5 µM (inactive)	15.8 µM (inactive)	16.5 µM (inactive)	17.9 µM (inactive)	14.8 µM (inactive)	14 µM (inactive)	21.4 µM (inactive)	19.4 µM (inactive)	17.7 µM (inactive)	14.8 µM (inactive)	17.4 µM (inactive)		30.8 µM (inactive)	16.5 µM (inactive)	46.5 µM (inactive)	21.7 µM (inactive)	20 µM (inactive)	
CC1(C)CN=C(Nc2ccc(Cl)cc2)S1	> 100 µM (inactive)	> 100 µM (inactive)	64 µM (inactive)	30.5 µM (inactive)	> 100 µM (inactive)	29.5 µM (inactive)	> 100 µM (inactive)	> 100 µM (inactive)		76.6 µM (inactive)	> 100 µM (inactive)	> 100 µM (inactive)	> 100 µM (inactive)	> 100 µM (inactive)	62.7 µM (inactive)	> 100 µM (inactive)	70 µM (inactive)	> 100 µM (inactive)	> 100 µM (inactive)
